Experimental data reported in ChEMBL document CHEMBL1275478, “Enantioselective and nonlinear intestinal absorption of eflornithine in the rat” (Antimicrob Agents Chemother, 2008).

Columns and labels:
Assay type in all cases: ADME, organism-based
[1] = Oral bioavailability in Sprague-Dawley rat at 750 mg/kg, po; conditions: in vivo, pooled result: one value given for 3 cell lines, strains, targets or settings
Rattus norvegicus [2] = experiment: Intercompartmental clearance in Sprague-Dawley rat assessed as D-eflornithine at 375 mg/kg, iv administered as single infusion; parameters: dose 375 mg/kg, route intravenous; conditions: in vivo
[3] = Oral bioavailability in Sprague-Dawley rat at 3000 mg/kg, po; conditions: in vivo
Rattus norvegicus [4] = experiment: Intercompartmental clearance in Sprague-Dawley rat assessed as L-eflornithine at 375 mg/kg, iv administered as single infusion; parameters: dose 375 mg/kg, route intravenous; conditions: in vivo
Rattus norvegicus [5] = experiment: Mean transit time in Sprague-Dawley rat assessed as L-eflornithine at 750 to 3000 mg/kg, po; parameters: dose 750-3000 mg/kg, route oral; conditions: in vivo
Rattus norvegicus [6] = experiment: Intercompartmental clearance in Sprague-Dawley rat assessed as L-eflornithine at 1000 mg/kg, iv administered as 3 mins short-term infusion; parameters: dose 1000 mg/kg, route intravenous; conditions: in vivo, 0.05 h
Rattus norvegicus [7] = experiment: Intercompartmental clearance in Sprague-Dawley rat assessed as D-eflornithine at 1000 mg/kg, iv administered as 3 mins short-term infusion; parameters: dose 1000 mg/kg, route intravenous; conditions: in vivo, 0.05 h
Rattus norvegicus [8] = experiment: Mean transit time in Sprague-Dawley rat assessed as D-eflornithine at 750 to 3000 mg/kg, po; parameters: dose 750-3000 mg/kg, route oral; conditions: in vivo
[9] = Clearance in Sprague-Dawley rat at 375 mg/kg, iv administered as single infusion; parameters: dose 375 mg/kg, route intravenous; conditions: in vivo
[10] = Central volume of distribution in Sprague-Dawley rat at 1000 mg/kg, iv administered as 3 mins short-term infusion; parameters: dose 1000 mg/kg, route intravenous; conditions: in vivo
[11] = Clearance in Sprague-Dawley rat at 1000 mg/kg, iv administered as 3 mins short-term infusion; parameters: dose 1000 mg/kg, route intravenous; conditions: in vivo
[12] = Central volume of distribution in Sprague-Dawley rat at 375 mg/kg, iv administered as single infusion; parameters: dose 375 mg/kg, route intravenous; conditions: in vivo

Compound	bioavailability [1] [%]	CL (Rattus norvegicus [2]) [mL/min/kg]	bioavailability [3] [%]	CL (Rattus norvegicus [4]) [mL/min/kg]	MTT (Rattus norvegicus [5]) [min]	CL (Rattus norvegicus [6]) [mL/min/kg]	CL (Rattus norvegicus [7]) [mL/min/kg]	MTT (Rattus norvegicus [8]) [min]	clearance [9] [mL/min/kg]	Vd [10] [L/kg]	clearance [11] [mL/min/kg]	Vd [12] [L/kg]
NCCCC(N)(C(=O)O)C(F)F (racemic) [EFLORNITHINE]	62.3	1.2	82.7	1.2	88	1.2	1.2	88	–	–	–	–
NCCC[C@@](N)(C(=O)O)C(F)F [D-EFLORNITHINE]	–	–	–	–	–	–	–	–	12.6	0.401	–	–
NCCC[C@](N)(C(=O)O)C(F)F [EFLORNITHINE, (S)-]	41	–	47	–	–	–	–	–	14.5	0.404	14.5	0.404
